IC50 data for 17 compounds are collected here from US20120328569A1, “INHIBITORS OF HEPATITIS C VIRUS NS5B POLYMERASE” (priority 2010, published 2012).

Molecules are shown by their SMILES.

In one assay the test system is HCV genotype 1b replicon. In words: HCV replicon assay, cell ELISA with antibody to replicon-encoded NS3/4A (genotype 1b replicon). The class given is cell-based, hepatitis C virus. The following applies: Hepatitis C virus, 96 h, read-out: 1b IC50(nM), HCV genotype 1b replicon; 96 hours incubation; NS3/4A cell ELISA. Summed up: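 Replicon-harbouring cells carrying neomycin phosphotransferase were incubated 96 h with a compound dilution series without G418. Replication was quantified indirectly by a cell ELISA detecting replicon-encoded NS3/4A. IC50 values were calculated relative to DMSO control with a four-parameter fit.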
A general note: Replicon systems follow genome replication, usually without infectious particles.
`CNC(=O)c1c(-c2ccc(F)cc2)oc2cc(N(CCCF)S(C)(=O)=O)c(-c3ccc(OC)c(-c4nc5ncccc5o4)c3)cc12` [Example 863]: the IC50 (as a rule, the concentration that gives 50% inhibition) was determined as 1.8 nM.
Still for that read-out and setting: as for `CNC(=O)c1c(-c2ccc(F)cc2)oc2cc(N(C)S(C)(=O)=O)c(-c3ccc(Cl)c(-c4nc5c(F)cccc5o4)c3)cc12` [Example 865], the figure is 4.7 nM.
Same read-out and setting: as for `CNC(=O)c1c(-c2ccc(F)cc2)oc2cc(N(C)S(C)(=O)=O)c(-c3cc(OC)cc(-c4nc5ncccc5o4)c3)cc12` [Example 866], the figure is 3.1 nM.
Same read-out and setting: as for `CNC(=O)c1c(-c2ccc(F)cc2)oc2cc(N(CCCF)S(C)(=O)=O)c(-c3cccc(-c4nc5ncccc5o4)c3)cc12` [Example 868], the figure is 1.3 nM; as for `CNC(=O)c1c(-c2ccc(F)cc2)oc2cc(N(CC(F)F)S(C)(=O)=O)c(-c3cccc(-c4nc5ncccc5o4)c3)cc12` [Example 869], 2.3 nM; as for `CNC(=O)c1c(-c2ccc(F)cc2)oc2cc(N(CCF)S(C)(=O)=O)c(-c3ccc(OC)c(-c4nc5ncccc5o4)c3)cc12` [Example 870], 1.3 nM.
Consider `CNC(=O)c1c(-c2ccc(F)cc2)oc2cc(N(CCF)S(C)(=O)=O)c(-c3ccc(OC)c(-c4nc5cccc(F)c5o4)c3)cc12` [Example 871], for which the IC50 was found to be 3.5 nM.
The same measure, in the same setting: in the case of `CNC(=O)c1c(-c2ccc(F)cc2)oc2cc(N(CCC(F)(F)F)S(C)(=O)=O)c(-c3cccc(-c4nc5ncccc5o4)c3)cc12` [Example 872] it was 4.7 nM; in that of `CNC(=O)c1c(-c2ccc(F)cc2)oc2cc(N(CCF)S(C)(=O)=O)c(-c3cc(F)cc(-c4nc5ncccc5o4)c3)cc12` [Example 873], 3.4 nM; in that of `CNC(=O)c1c(-c2ccc(F)cc2)oc2cc(N(C)S(C)(=O)=O)c(-c3ccc(OC)c(-c4nc5c(F)ccc(F)c5o4)c3)cc12` [Example 874], 2.1 nM.
Still for that read-out and setting: as for `CNC(=O)c1c(-c2ccc(F)cc2)oc2cc(N(C(C)CF)S(C)(=O)=O)c(-c3cccc(-c4nc5ncccc5o4)c3)cc12` (centres unmarked) [Example 875], the figure is 2.1 nM; as for `CNC(=O)c1c(-c2ccc(F)cc2)oc2cc(N(CC(F)F)S(C)(=O)=O)c(-c3cc(F)cc(-c4nc5ncccc5o4)c3)cc12` [Example 876], 3.5 nM; as for `CNC(=O)c1c(-c2ccc(F)cc2)oc2cc(N(CC(F)F)S(C)(=O)=O)c(-c3ccc(OC)c(-c4nc5ncccc5o4)c3)cc12` [Example 877], 5.1 nM.
Still for that read-out and setting: in the case of `CNC(=O)c1c(-c2ccc(F)cc2)oc2cc(N(CC(F)F)S(C)(=O)=O)c(-c3ccc(OC)c(-c4nc5cccc(F)c5o4)c3)cc12` [Example 878] it was 17.2 nM; in that of `CNC(=O)c1c(-c2ccc(F)cc2)oc2cc(N(CCC(C)(C)O)S(C)(=O)=O)c(-c3cc(F)cc(-c4nc5ncccc5o4)c3)cc12` [Example 879], 2.6 nM.
As for `CNC(=O)c1c(-c2ccc(F)cc2)oc2cc(N(CCC(C)(C)O)S(C)(=O)=O)c(-c3ccc(OC)c(-c4nc5ncccc5o4)c3)cc12` [Example 880], the IC50 was determined as 2.9 nM.

The same assay, now with this note: read-out: 1b IC50; HCV genotype 1b replicon; 96 hours incubation; NS3/4A cell ELISA.
In the case of `CNC(=O)c1c(-c2ccc(F)cc2)oc2cc(N(CCF)S(C)(=O)=O)c(-c3cccc(-c4nc5ncccc5o4)c3)cc12` [Example 867], the IC50 is 1.8 nM.
